The target in this assay is Neuropilin-1 (Homo sapiens) (UniProt O14786). The assay is described as follows: blockers of CendR peptide binding to NRP-1 – biochemical, FP and AlphaScreen panel, dose response (AID 651650). The conditions noted are these: NRP-1 b1b2 / RPARPAR peptide binding, FP or AlphaScreen. Background: Alpha assays give light when donor and acceptor beads are brought close together.

The mark [1] stands for this setting: AlphaScreen, run 1, individual panel run IC50.
Where [2] appears, read: FP, run 1, individual panel run IC50.
Where [3] appears, read: FP, run 2, individual panel run IC50.

A word on the IC50: it is the concentration at which inhibition is half-maximal.

Active and inactive are the calls of the source.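 Rule for the calls: active = mean IC50 below 20 µM in each of the two panels, so potent in both; inactive = the rest.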 Some results are limits rather than exact numbers.

Neuropilin-1 (Homo sapiens), sequence (O14786 whole entry, looked up): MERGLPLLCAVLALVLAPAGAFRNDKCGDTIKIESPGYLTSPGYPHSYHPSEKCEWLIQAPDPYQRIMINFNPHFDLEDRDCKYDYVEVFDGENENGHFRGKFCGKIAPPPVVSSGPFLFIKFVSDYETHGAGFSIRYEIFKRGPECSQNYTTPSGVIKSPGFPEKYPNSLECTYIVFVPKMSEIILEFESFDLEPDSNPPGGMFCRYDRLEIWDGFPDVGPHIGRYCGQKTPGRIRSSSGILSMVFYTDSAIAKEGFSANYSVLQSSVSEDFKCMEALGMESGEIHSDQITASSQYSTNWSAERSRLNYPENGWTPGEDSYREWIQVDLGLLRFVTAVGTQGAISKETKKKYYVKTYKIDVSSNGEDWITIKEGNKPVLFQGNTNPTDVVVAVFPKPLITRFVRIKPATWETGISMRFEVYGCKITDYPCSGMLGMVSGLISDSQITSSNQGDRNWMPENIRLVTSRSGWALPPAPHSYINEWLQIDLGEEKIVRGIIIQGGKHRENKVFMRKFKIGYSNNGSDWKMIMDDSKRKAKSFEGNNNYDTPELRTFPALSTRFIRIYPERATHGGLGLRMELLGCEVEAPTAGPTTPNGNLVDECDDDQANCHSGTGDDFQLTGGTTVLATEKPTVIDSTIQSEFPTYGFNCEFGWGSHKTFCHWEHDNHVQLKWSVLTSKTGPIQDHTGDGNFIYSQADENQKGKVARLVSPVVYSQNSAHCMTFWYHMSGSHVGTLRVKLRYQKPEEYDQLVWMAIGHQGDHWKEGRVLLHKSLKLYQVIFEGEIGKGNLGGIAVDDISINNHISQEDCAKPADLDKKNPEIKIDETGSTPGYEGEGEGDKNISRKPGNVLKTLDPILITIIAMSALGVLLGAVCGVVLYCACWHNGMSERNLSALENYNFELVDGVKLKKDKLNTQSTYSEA

Turning to `Cc1ccc(N(C(=O)c2ccc(CN3CCOCC3)o2)C(C(=O)NCCC(C)C)c2cccs2)c(C)c1` (stereo not given), the IC50 by setting is: (AlphaScreen, mean of runs) > 100 µM (inactive); under setting [1], greater than 100 µM; (FP, mean of runs) > 95 µM (inactive); under setting [2], greater than 95 µM; under setting [3], greater than 95 µM.

With `CC(C)(C)N(NC(=O)Nc1ccc(Cl)cc1)C(=O)c1ccccc1`, the IC50 reads like this: (AlphaScreen, mean of runs) > 100 µM (inactive); under setting [1], greater than 100 µM; (FP, mean of runs) > 95 µM (inactive); under setting [2], greater than 95 µM; under setting [3], greater than 95 µM.

Regarding `O=C(O)CCCC(=O)N1CCc2cc(S(=O)(=O)N3CCc4ccccc43)ccc21`, the IC50 was > 100 µM (inactive) (AlphaScreen, mean of runs); greater than 100 µM under setting [1]; > 95 µM (inactive) (FP, mean of runs); greater than 95 µM under setting [2]; greater than 95 µM under setting [3].

On to `Cc1onc(-c2ccccc2)c1C(=O)N1CCCC1`, for which the IC50 runs as follows: (AlphaScreen, mean of runs) > 100 µM (inactive); under setting [1], greater than 100 µM; (FP, mean of runs) > 95 µM (inactive); under setting [2], greater than 95 µM; under setting [3], greater than 95 µM.

As to `COc1ccc(NC(=O)C(C)Sc2ccccc2)cc1` (stereo not given), the IC50 (AlphaScreen, mean of runs) is > 100 µM (inactive); the IC50 under setting [1] is greater than 100 µM; the IC50 (FP, mean of runs) is > 95 µM (inactive); the IC50 under setting [2] is greater than 95 µM; the IC50 under setting [3] is greater than 95 µM.

As to `O=C(O/N=C1/CCSc2ccccc21)c1ccccc1`, the IC50 is > 100 µM (inactive) (AlphaScreen, mean of runs); greater than 100 µM under setting [1]; > 95 µM (inactive) (FP, mean of runs); greater than 95 µM under setting [2]; greater than 95 µM under setting [3].

`Cn1c(=O)c2c(nc(OCc3cccnc3)n2Cc2ccccc2)n(C)c1=O`: the IC50 entry (AlphaScreen, mean of runs) is “inactive”. In addition, the IC50 is, setting by setting: under setting [1], 40.7 µM; (FP, mean of runs) > 95 µM (inactive); under setting [2], greater than 95 µM; under setting [3], greater than 95 µM.

With `CC1CCN(C(=O)CSc2nncn2C)CC1`, the IC50 was > 100 µM (inactive) (AlphaScreen, mean of runs); greater than 100 µM under setting [1]; > 95 µM (inactive) (FP, mean of runs); greater than 95 µM under setting [2]; greater than 95 µM under setting [3].

On to `CCOC(=O)c1ccc(N2CCN(C(=O)c3ccccc3)CC2)c(NC(=O)c2ccco2)c1`, for which the IC50 is > 100 µM (inactive) (AlphaScreen, mean of runs); greater than 100 µM under setting [1]; > 95 µM (inactive) (FP, mean of runs); greater than 95 µM under setting [2]; greater than 95 µM under setting [3].

Consider `O=C1c2cc([N+](=O)[O-])cc3cc([N+](=O)[O-])cc(c23)C(=O)N1c1ccccn1`, for which the IC50 runs as follows: (AlphaScreen, mean of runs) > 100 µM (inactive); under setting [1], greater than 100 µM; (FP, mean of runs) > 95 µM (inactive); under setting [2], greater than 95 µM; under setting [3], greater than 95 µM.

For the molecule `Cc1csc(NC(C)c2nc3cc(C(F)(F)F)ccc3n2CCCO)n1` (stereo not given), the IC50 runs as follows: (AlphaScreen, mean of runs) 8.6 µM; under setting [1], 8.6 µM; (FP, mean of runs) > 95 µM (inactive); under setting [2], greater than 95 µM; under setting [3], greater than 95 µM.

With `CC(=O)NCCNc1nc(NC(C)C)nc2ccsc12`, the IC50 by setting is: (AlphaScreen, mean of runs) > 100 µM (inactive); under setting [1], greater than 100 µM; (FP, mean of runs) > 95 µM (inactive); under setting [2], greater than 95 µM; under setting [3], greater than 95 µM.

Regarding `COc1ccncc1-c1csc(C(O)c2ccccc2)n1` (stereo not given), the IC50 runs as follows: (AlphaScreen, mean of runs) > 100 µM (inactive); under setting [1], greater than 100 µM; (FP, mean of runs) > 95 µM (inactive); under setting [2], greater than 95 µM; under setting [3], greater than 95 µM.

`Nc1ccc(C(=O)Nc2ccc(Nc3ccncc3)cc2)c([N+](=O)[O-])c1`: the IC50 by setting is: (AlphaScreen, mean of runs) 2.27 µM; under setting [1], 2.27 µM; (FP, mean of runs) > 95 µM (inactive); under setting [2], greater than 95 µM; under setting [3], greater than 95 µM.

With `CCOc1ccc(S(=O)(=O)NNC(=O)c2cc3ccccc3o2)cc1`, the IC50 was > 100 µM (inactive) (AlphaScreen, mean of runs); greater than 100 µM under setting [1]; > 95 µM (inactive) (FP, mean of runs); greater than 95 µM under setting [2]; greater than 95 µM under setting [3].

As for `CCOC(=O)C1=CCN(S(=O)(=O)c2ccccc2Br)C1c1ccccc1` (stereo not given), the IC50 reads like this: (AlphaScreen, mean of runs) > 100 µM (inactive); under setting [1], greater than 100 µM; (FP, mean of runs) > 95 µM (inactive); under setting [2], greater than 95 µM; under setting [3], greater than 95 µM.

As to `CC(C)(C)OC(=O)N1CCN(C(=O)c2[nH]cnc2C(=O)NCc2ccccc2)CC1`, the IC50 is > 100 µM (inactive) (AlphaScreen, mean of runs); greater than 100 µM under setting [1]; > 95 µM (inactive) (FP, mean of runs); greater than 95 µM under setting [2]; greater than 95 µM under setting [3].

`Cc1csc(NC(C)c2nc3cc(C(F)(F)F)ccc3n2CCOCCO)n1` (stereo not given): the IC50 (AlphaScreen, mean of runs) is > 100 µM (inactive); the IC50 under setting [1] is greater than 100 µM; the IC50 (FP, mean of runs) is > 95 µM (inactive); the IC50 under setting [2] is greater than 95 µM; the IC50 under setting [3] was greater than 95 µM.

In the case of `CC(C)OC(=O)CSc1nnc(-c2ccccn2)n1-c1ccccc1`, the IC50 runs as follows: (AlphaScreen, mean of runs) > 100 µM (inactive); under setting [1], greater than 100 µM; (FP, mean of runs) > 95 µM (inactive); under setting [2], greater than 95 µM; under setting [3], greater than 95 µM.

Turning to `CCOc1ccccc1C1CC(=O)NC2=C1C(=O)CC(C)(C)C2` (stereo not given), the IC50 was > 100 µM (inactive) (AlphaScreen, mean of runs); greater than 100 µM under setting [1]; > 95 µM (inactive) (FP, mean of runs); greater than 95 µM under setting [2]; greater than 95 µM under setting [3].

On to `CCn1c(N)c(C(=O)NCc2cccnc2)sc1=S`, for which the IC50 by setting is: (AlphaScreen, mean of runs) 13 µM; under setting [1], 13 µM; under setting [2], greater than 95 µM; under setting [3], 30.1 µM. Also, the IC50 result (FP, mean of runs) was “inactive”.

In the case of `COc1ccc(CN2C(=O)c3ccccc3C2=O)cc1C(=O)Nc1ccccc1N1CCOCC1`, the IC50 by setting is: (AlphaScreen, mean of runs) > 100 µM (inactive); under setting [1], greater than 100 µM; (FP, mean of runs) > 95 µM (inactive); under setting [2], greater than 95 µM; under setting [3], greater than 95 µM.

On to `O=C(O)CSc1nnc(-c2ccc(Cl)cc2Cl)n1-c1ccc(Cl)cc1`, for which the IC50 entry runs as follows: (AlphaScreen, mean of runs) “inactive”; (FP, mean of runs) “inactive”. In addition, the IC50 is, setting by setting: under setting [1], 39.9 µM; under setting [2], greater than 95 µM; under setting [3], 34.4 µM.

On to `O=C(NC1CC1)c1ccc(COc2ccc(F)cc2)o1`, for which the IC50 (AlphaScreen, mean of runs) is > 100 µM (inactive); the IC50 under setting [1] was greater than 100 µM; the IC50 (FP, mean of runs) is > 95 µM (inactive); the IC50 under setting [2] is greater than 95 µM; the IC50 under setting [3] was greater than 95 µM.

In the case of `FC(F)(F)C1CC(c2cccs2)Nc2ncnn21` (stereo not given), the IC50 reads like this: (AlphaScreen, mean of runs) > 100 µM (inactive); under setting [1], greater than 100 µM; (FP, mean of runs) > 95 µM (inactive); under setting [2], greater than 95 µM; under setting [3], greater than 95 µM.

For `CSc1ncccc1C(=O)OCC(=O)NC1CCCCC1`, the IC50 was > 100 µM (inactive) (AlphaScreen, mean of runs); greater than 100 µM under setting [1]; > 95 µM (inactive) (FP, mean of runs); greater than 95 µM under setting [2]; greater than 95 µM under setting [3].

On to `CCOC(=O)N1CCN(C(=O)Nc2ccc3nc(C)c(C)nc3c2)CC1`, for which the IC50 reads like this: (AlphaScreen, mean of runs) > 100 µM (inactive); under setting [1], greater than 100 µM; (FP, mean of runs) > 95 µM (inactive); under setting [2], greater than 95 µM; under setting [3], greater than 95 µM.

As for `O=c1c2ccccc2nc2n1C(CSc1ccc(F)cc1)CS2` (stereo not given), the IC50 is 11.5 µM (AlphaScreen, mean of runs); 11.5 µM under setting [1]; > 95 µM (inactive) (FP, mean of runs); greater than 95 µM under setting [2]; greater than 95 µM under setting [3].

With `CCCCC1CCC(C(=O)NC2CCS(=O)(=O)C2)CC1` (stereo not given), the IC50 is, setting by setting: (AlphaScreen, mean of runs) > 100 µM (inactive); under setting [1], greater than 100 µM; (FP, mean of runs) > 95 µM (inactive); under setting [2], greater than 95 µM; under setting [3], greater than 95 µM.

Regarding `O=[N+]([O-])c1ccc(Cc2ccncc2)cc1`, the IC50 was > 100 µM (inactive) (AlphaScreen, mean of runs); greater than 100 µM under setting [1]; > 95 µM (inactive) (FP, mean of runs); greater than 95 µM under setting [2]; greater than 95 µM under setting [3].

`COC(=O)n1c(=O)oc2ccccc21`: the IC50 is > 100 µM (inactive) (AlphaScreen, mean of runs); greater than 100 µM under setting [1]; > 95 µM (inactive) (FP, mean of runs); greater than 95 µM under setting [2]; greater than 95 µM under setting [3].

With `COc1ccc(Cn2c3ccc(OC)cc3c3nc4ccccc4nc32)cc1`, the IC50 entry (AlphaScreen, mean of runs) was “inactive”. Further, the IC50 is 38.9 µM under setting [1]; > 95 µM (inactive) (FP, mean of runs); greater than 95 µM under setting [2]; greater than 95 µM under setting [3].

Consider `Cc1ccc(C(=O)OCC(=O)c2ccc(Cl)s2)s1`, for which the IC50 (AlphaScreen, mean of runs) was > 100 µM (inactive); the IC50 under setting [1] is greater than 100 µM; the IC50 (FP, mean of runs) was > 95 µM (inactive); the IC50 under setting [2] was greater than 95 µM; the IC50 under setting [3] is greater than 95 µM.

For the molecule `CCOC(=O)c1c2ccc(OCC(=O)NN)cc2n2ccccc12`, the IC50 reads like this: (AlphaScreen, mean of runs) > 100 µM (inactive); under setting [1], greater than 100 µM; (FP, mean of runs) > 95 µM (inactive); under setting [2], greater than 95 µM; under setting [3], greater than 95 µM.

Consider `CC(=O)Nc1cc(F)c2c(c1F)Cc1cc(F)ccc1-2`, for which the IC50 result (AlphaScreen, mean of runs) is “inactive”. The IC50 was 89.2 µM under setting [1]; > 95 µM (inactive) (FP, mean of runs); greater than 95 µM under setting [2]; greater than 95 µM under setting [3].
